# Reference: article PMC3839579 (Food chemistry, 2012)
# Assays:
# [1] = Stability of cyanidin chloride, PCA and PGA in saliva; type: in vitro ADME, human
# [2] = type: in vitro ADME, human; conditions: preliminary analysis
# [3] = type: in vitro ADME, human; conditions: individual glucosides in RdGrp extract, chlorhexidine rinse
# [4] = Stability of cyanidin chloride in acidified water; type: physicochemical
compound,measurement,setting,value
"O=C(O)c1ccc(O)c(O)c1 [PCA, protocatechuic acid]","recovery at 60 min, 25 nmol/mL",[1]; human,90%
"OC[C@H]1O[C@@H](Oc2cc3c(O)cc(O)cc3[o+]c2-c2ccc(O)c(O)c2)[C@H](O)[C@@H](O)[C@@H]1O [Cy-3-glu, Cyanidin-3-O-glucoside]",Chalcone glucosides of Cy as share of the original amount incubated in saliva ex vivo,[2],≤ 30%
"O=Cc1c(O)cc(O)cc1O [PGA, phloroglucinol aldehyde]",Recovery after incubation in intact saliva,"[1]; 25 nmol/mL, 37 °C, 60 min",43%
"COc1cc(-c2[o+]c3cc(O)cc(O)c3cc2O[C@@H]2O[C@H](CO)[C@@H](O)[C@H](O)[C@H]2O)ccc1O [Pn, Peonidin-3-O-glucoside]",Decrease of degradation in saliva after antibacterial treatment,[3],50%
"OC[C@H]1O[C@@H](Oc2cc3c(O)cc(O)cc3[o+]c2-c2cc(O)c(O)c(O)c2)[C@H](O)[C@@H](O)[C@@H]1O [Dp, Delphinidin-3-O-glucoside]",Decrease of degradation in saliva after antibacterial treatment,[3],30%
"COc1cc(-c2[o+]c3cc(O)cc(O)c3cc2O[C@@H]2O[C@H](CO)[C@@H](O)[C@H](O)[C@H]2O)cc(OC)c1O [Mv, Malvidin-3-O-glucoside]",Decrease of degradation in saliva after antibacterial treatment,[3],50%
"Oc1cc(O)c2cc(O)c(-c3ccc(O)c(O)c3)[o+]c2c1 [CyCl, cyanidin chloride]",CyCl recovered immediately after addition to acidified water,[4]; 0 min,Greater than 86%
same,CyCl lost after incubation in acidified water,[4]; 60 min,greater than 88%
same,Cyanidin aglycone degraded upon addition to intact saliva,"[1]; human, 0 min, 25 nmol/L",> 90%
same,PCA as share of the degraded CyCl in saliva,"[1]; human, 0 min, 25 nmol/mL",15.3%
same,PCA as share of the degraded CyCl in saliva,"[1]; human, 60 min, 25 nmol/mL",9.6%
"COc1cc(-c2[o+]c3cc(O)cc(O)c3cc2O[C@@H]2O[C@H](CO)[C@@H](O)[C@H](O)[C@H]2O)cc(O)c1O [Pt-3-glu, Petunidin-3-O-glucoside]",Decrease of degradation in saliva after antibacterial treatment,[3],10%
